The text below walks through data of patent US10711004B2 (Genentech, Inc., priority 2018, dated 2020).

In this assay the target is human TRPA1 channel (Homo sapiens (Human), UniProt O75762). As to the kind of experiment: hTRPA1 CHO Ca2+ FLIPR Tetra assay, block of cinnamaldehyde induced calcium influx. Format: cell-based. Conditions: for IC50: CHO cells expressing TRPA1, Hill coefficient fixed to 1.5; for TRPA1 IC50 compared with 3-azabicyclo[3.1.0]hexene linker and cyclobutylene linker analogues: bicyclo[3.1.0]hexene linker compounds versus same-substituent analogues (compounds 16, 191; 26, 1). Summed up:
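IC50 values come from fixed-Hill fits of inhibition of cinnamaldehyde-induced (about EC50 level) calcium influx measured by FLIPR Tetra. Before agonist, TRPA1-expressing CHO cells loaded with calcium indicator were exposed to compound for 10 or 90 min at room temperature in HEPES-buffered HBSS, pH 7.4, with 0.02% BSA.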

The mark [1] stands for this setting: read-out: hTRPA1 IC50 (10 min), compounds incubated 10 minutes at room temperature before cinnamaldehyde agonist.
[2] abbreviates: read-out: hTRPA1 IC50 (90 min), compounds incubated 90 minutes at room temperature before cinnamaldehyde agonist.

Read-outs that look alike come from different tables or passages of the source.

human TRPA1 channel, sequence (O75762 whole entry): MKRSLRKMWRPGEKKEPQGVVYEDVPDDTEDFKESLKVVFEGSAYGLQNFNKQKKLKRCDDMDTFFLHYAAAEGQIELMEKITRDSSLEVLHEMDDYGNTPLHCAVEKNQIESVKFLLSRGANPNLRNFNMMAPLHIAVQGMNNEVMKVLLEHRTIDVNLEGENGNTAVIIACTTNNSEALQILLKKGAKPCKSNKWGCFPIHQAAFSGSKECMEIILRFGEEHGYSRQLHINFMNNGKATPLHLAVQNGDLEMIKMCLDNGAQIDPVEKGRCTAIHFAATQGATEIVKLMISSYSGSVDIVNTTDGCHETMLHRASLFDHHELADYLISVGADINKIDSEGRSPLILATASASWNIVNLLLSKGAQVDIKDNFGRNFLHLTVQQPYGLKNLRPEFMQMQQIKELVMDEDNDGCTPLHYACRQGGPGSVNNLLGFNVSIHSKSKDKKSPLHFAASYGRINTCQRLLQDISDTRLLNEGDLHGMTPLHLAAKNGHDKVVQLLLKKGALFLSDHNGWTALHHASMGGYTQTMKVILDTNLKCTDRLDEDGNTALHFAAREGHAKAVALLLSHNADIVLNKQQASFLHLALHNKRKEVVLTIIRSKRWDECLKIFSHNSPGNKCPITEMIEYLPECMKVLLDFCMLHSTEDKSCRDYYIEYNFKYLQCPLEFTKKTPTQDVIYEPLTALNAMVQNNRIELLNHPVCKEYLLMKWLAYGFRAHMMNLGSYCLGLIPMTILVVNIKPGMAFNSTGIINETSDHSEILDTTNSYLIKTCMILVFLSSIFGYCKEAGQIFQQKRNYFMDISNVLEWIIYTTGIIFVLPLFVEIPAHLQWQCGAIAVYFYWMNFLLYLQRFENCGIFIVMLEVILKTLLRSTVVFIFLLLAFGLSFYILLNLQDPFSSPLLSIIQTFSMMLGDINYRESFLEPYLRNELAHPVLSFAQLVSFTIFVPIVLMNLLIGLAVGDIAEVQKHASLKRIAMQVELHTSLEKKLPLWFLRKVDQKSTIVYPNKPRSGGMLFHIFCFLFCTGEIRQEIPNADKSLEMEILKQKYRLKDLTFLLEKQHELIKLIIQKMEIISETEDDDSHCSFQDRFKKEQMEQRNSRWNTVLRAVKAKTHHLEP

Turning to `Cn1cnc2ncn(Cc3nc([C@H]4[C@@H]5CN(c6ccc(OC(F)(F)F)cc6)C[C@@H]54)no3)c(=O)c21` [Example Compound 6, 7-methyl-1-[[3-[(1R,5S,6 r)-3-[4-(trifluoromethoxy)phenyl]-3-azabicyclo[3.1.0]hexan-6-yl]-1,2,4-oxadiazol-5-yl]methyl]purin-6-one], under setting [1], the half-inhibitory concentration (IC50) was determined as 42.4 nM.

Turning to `Cn1cnc2ncn(Cc3nc([C@H]4[C@@H]5CN(c6cccc(SC(F)(F)F)c6)C[C@@H]54)no3)c(=O)c21`, the IC50 under setting [1] amounted to 300 nM.

Take `Cn1c(Cl)nc2ncn(Cc3nc([C@@H]4[C@H]5C=C(c6ccccc6)C[C@H]54)no3)c(=O)c21` [Example Compound 263, 8-chloro-7-methyl-1-[[3-[(1R,5R,6S)-3-phenyl-6-bicyclo[3.1.0]hex-2-enyl]-1,2,4-oxadiazol-5-yl]methyl]purin-6-one]: the 50% inhibitory concentration (IC50) runs as follows: under setting [1], 15.8 nM; under setting [2], 6.5 nM.

For `Cn1cnc2ncn(Cc3nc([C@@H]4[C@H]5C=C(c6cccc(Cl)c6)C[C@H]54)no3)c(=O)c21` [Example Compound 185, 1-((3-((1R,5R,6S)-3-(3-chlorophenyl)bicyclo[3.1.0]hex-2-en-6-yl)-1,2,4-oxadiazol-5-yl)methyl)-7-methyl-1,7-dihydro-6H-purin-6-one], the “TRPA1 IC50 compared with 3-azabicyclo[3.1.0]hexene linker and cyclobutylene linker analogues” value is reported as “improved TRPA1 IC50 values”. Also, the half-maximal inhibitory concentration (IC50) under setting [1] came out at 18.5 nM. Besides, the concentration for half-maximal inhibition (IC50) under setting [2] was determined as 7.8 nM.

Take `Cc1cc(C#N)nc2ncn(Cc3nc([C@H]4C[C@](F)(c5ccc(Cl)cc5)C4)no3)c(=O)c12` [Example Compound 158, 3-((3-((1s,3s)-3-(4-chlorophenyl)-3-fluorocyclobutyl)-1,2,4-oxadiazol-5-yl)methyl)-5-methyl-4-oxo-3,4-dihydropyrido[2,3-d]pyrimidine-7-carbonitrile]: the concentration for half-maximal inhibition (IC50) runs as follows: under setting [1], 19.4 nM; under setting [2], 10 nM.

In the case of `Cn1cnc2ncn(Cc3nc([C@H]4[C@@H]5CN(c6ccc(OC(F)F)cc6)C[C@@H]54)no3)c(=O)c21` [Example Compound 12, 7-methyl-1-[[3-[(1R,5S,6 r)-3-[4-(difluoromethoxy)phenyl]-3-azabicyclo[3.1.0]hexan-6-yl]-1,2,4-oxadiazol-5-yl]methyl]purin-6-one], the half-inhibitory concentration (IC50) under setting [1] was 50.4 nM.

As to `Cn1cnc2ncn(Cc3nc([C@H]4[C@@H]5CN(c6ccc(Cl)cc6F)C[C@@H]54)no3)c(=O)c21` [Example Compound 276, 7-methyl-1-[[3-[(1S,5R)-3-(4-chloro-2-fluorophenyl)-3-azabicyclo[3.1.0]hexan-6-yl]-1,2,4-oxadiazol-5-yl]methyl]purin-6-one], the IC50 amounted to 15 nM under setting [1] and 7.4 nM under setting [2].

`Cn1cnc2ncn(Cc3nc([C@H]4[C@@H]5C=C(c6ccccc6)C[C@@H]54)no3)c(=O)c21` [Example Compound 225, 7-methyl-1-((3-((1S,5S,6R)-3-phenylbicyclo[3.1.0]hex-2-en-6-yl)-1,2,4-oxadiazol-5-yl)methyl)-1,7-dihydro-6H-purin-6-one]: the “TRPA1 IC50 compared with 3-azabicyclo[3.1.0]hexene linker and cyclobutylene linker analogues” value is reported as “improved TRPA1 IC50 values”. For the same compound, under setting [1], the half-maximal inhibitory concentration (IC50) was found to be 13.8 nM. Further, the half-maximal inhibitory concentration (IC50) under setting [2] was found to be 1.7 nM.

With `O=c1c2ccncc2ncn1Cc1nc([C@H]2[C@@H]3CN(c4cccc(Cl)c4)C[C@@H]32)no1` [Example Compound 230, 3-((3-((1R,5S,6r)-3-(3-chlorophenyl)-3-azabicyclo[3.1.0]hexan-6-yl)-1,2,4-oxadiazol-5-yl)methyl)pyrido[3,4-d]pyrimidin-4(3H)-one], under setting [1], the IC50 was 33.1 nM.

For `Cn1cnc2ncn(Cc3nc([C@H]4[C@@H]5CN(c6cnc7ccccc7c6)C[C@@H]54)no3)c(=O)c21`, the half-inhibitory concentration (IC50) under setting [1] came out at 169 nM.

On to `Nc1ccc2c(=O)n(Cc3nc([C@H]4[C@@H]5C=C(c6ccccc6)C[C@@H]54)no3)cnc2n1` [Example Compound 239, 7-amino-3-[[3-[(1S,5S,6R)-3-phenyl-6-bicyclo[3.1.0]hex-2-enyl]-1,2,4-oxadiazol-5-yl]methyl]pyrido[2,3-d]pyrimidin-4-one], for which the 50% inhibitory concentration (IC50) reads like this: under setting [1], 10.5 nM; under setting [2], 5.3 nM.

Consider `Cc1nn(C)c2ncn(Cc3nc([C@H]4[C@@H]5CN(c6cc(Cl)ccn6)C[C@@H]54)no3)c(=O)c12` [Example Compound 137, 5-((3-((1R,5S,6r)-3-(4-chloropyridin-2-yl)-3-azabicyclo[3.1.0]hexan-6-yl)-1,2,4-oxadiazol-5-yl)methyl)-1,3-dimethyl-1,5-dihydro-4H-pyrazolo[3,4-d]pyrimidin-4-one], for which the IC50 was determined as 58.5 nM under setting [1] and 43 nM under setting [2].

Regarding `O=c1c2cccnc2ncn1Cc1nc([C@H]2C[C@H](Oc3cccc(F)c3)C2)no1` [Example Compound 147, 3-((3-((1r,3r)-3-(3-fluorophenoxy)cyclobutyl)-1,2,4-oxadiazol-5-yl)methyl)pyrido[2,3-d]pyrimidin-4(3H)-one], the IC50 runs as follows: under setting [1], 232 nM; under setting [2], 140 nM.

Turning to `Nc1ccc2c(=O)n(Cc3nc([C@H]4[C@@H]5CN(c6cccc(F)c6)C[C@@H]54)no3)cnc2n1` [Example Compound 261, 7-amino-3-[[3-[(1R,5S)-3-(3-fluorophenyl)-3-azabicyclo[3.1.0]hexan-6-yl]-1,2,4-oxadiazol-5-yl]methyl]pyrido[2,3-d]pyrimidin-4-one], the IC50 by setting is: under setting [1], 9.73 nM; under setting [2], 4.3 nM.

Regarding `Cn1cnc2ncn(Cc3nc([C@H]4[C@@H]5CN(c6cc(F)ccn6)C[C@@H]54)no3)c(=O)c21` [Example Compound 182, 1-((3-((1R,5S,6r)-3-(4-fluoropyridin-2-yl)-3-azabicyclo[3.1.0]hexan-6-yl)-1,2,4-oxadiazol-5-yl)methyl)-7-methyl-1,7-dihydro-6H-purin-6-one], the IC50 by setting is: under setting [1], 194 nM; under setting [2], 43 nM.

Take `Cn1cnc2ncn(Cc3nc([C@@H]4[C@H]5C=C(c6ccccn6)C[C@H]54)no3)c(=O)c21` [Example Compound 128, 7-methyl-1-((3-((1R,5R,6S)-3-(pyridin-2-yl)bicyclo[3.1.0]hex-2-en-6-yl)-1,2,4-oxadiazol-5-yl)methyl)-1,7-dihydro-6H-purin-6-one]: the half-inhibitory concentration (IC50) is, setting by setting: under setting [1], 118 nM; under setting [2], 78 nM.

With `Cn1cnc2ncn(Cc3nc([C@H]4C[C@H](c5cccc(F)c5)C4)no3)c(=O)c21` [Example Compound 191, 1-((3-((1r,3r)-3-(3-fluorophenyl)cyclobutyl)-1,2,4-oxadiazol-5-yl)methyl)-7-methyl-1,7-dihydro-6H-purin-6-one], under setting [1], the IC50 was 83 nM.

For the compound `CC(=O)Nc1nc2ncn(Cc3nc([C@H]4[C@@H]5C=C(c6ccccc6)C[C@@H]54)no3)c(=O)c2n1C` [Example Compound 241, N-[7-methyl-6-oxo-1-[[3-[(1S,5S,6R)-3-phenyl-6-bicyclo[3.1.0]hex-2-enyl]-1,2,4-oxadiazol-5-yl]methyl]purin-8-yl]acetamide], the IC50 under setting [1] is 66.9 nM and the IC50 under setting [2] was determined as 18 nM.

Turning to `Cn1cnc2ncn(Cc3nc([C@H]4[C@@H]5CN(c6cc(Cl)c(F)cc6F)C[C@@H]54)no3)c(=O)c21` [Example Compound 219, 1-((3-((1R,5S,6r)-3-(5-chloro-2,4-difluorophenyl)-3-azabicyclo[3.1.0]hexan-6-yl)-1,2,4-oxadiazol-5-yl)methyl)-7-methyl-1,7-dihydro-6H-purin-6-one], the concentration for half-maximal inhibition (IC50) reads like this: under setting [1], 29.3 nM; under setting [2], 31 nM.

For `Cn1cnc2ncn(Cc3nc([C@H]4[C@@H]5CN(c6cncc(F)c6)C[C@@H]54)no3)c(=O)c21` [Example Compound 144, 1-((3-((1R,5S,6r)-3-(5-fluoropyridin-3-yl)-3-azabicyclo[3.1.0]hexan-6-yl)-1,2,4-oxadiazol-5-yl)methyl)-7-methyl-1,7-dihydro-6H-purin-6-one], the concentration for half-maximal inhibition (IC50) under setting [1] worked out at 363 nM and the IC50 under setting [2] was 89 nM.

`Cn1cnc2ncn(Cc3nc([C@@H]4[C@H]5C=C(c6ccncc6)C[C@H]54)no3)c(=O)c21` [Example Compound 127, 7-methyl-1-((3-((1R,5R,6S)-3-(pyridin-4-yl)bicyclo[3.1.0]hex-2-en-6-yl)-1,2,4-oxadiazol-5-yl)methyl)-1,7-dihydro-6H-purin-6-one]: the concentration for half-maximal inhibition (IC50) under setting [1] was determined as 129 nM and the half-maximal inhibitory concentration (IC50) under setting [2] came out at 85 nM.

On to `Cn1cnc2ncn(Cc3nc([C@H]4[C@@H]5CN(c6c(F)ccc(Cl)c6F)C[C@@H]54)no3)c(=O)c21` [Example Compound 222, 1-((3-((1R,5S,6r)-3-(3-chloro-2,6-difluorophenyl)-3-azabicyclo[3.1.0]hexan-6-yl)-1,2,4-oxadiazol-5-yl)methyl)-7-methyl-1,7-dihydro-6H-purin-6-one], for which the IC50 is, setting by setting: under setting [1], 29.7 nM; under setting [2], 6.7 nM.

`Cc1ccnc2ncn(Cc3nc([C@H]4C[C@H](c5cccc(Cl)c5)C4)no3)c(=O)c12`: the concentration for half-maximal inhibition (IC50) under setting [1] worked out at 12.2 nM.

`Cn1cnc2ncn(Cc3nc([C@H]4[C@@H]5CN(c6ccc(Cl)cc6)C[C@@H]54)no3)c(=O)c21` [Example Compound 25, 7-methyl-1-[[3-[(1R,5S,6 r)-3-(4-chlorophenyl)-3-azabicyclo[3.1.0]hexan-6-yl]-1,2,4-oxadiazol-5-yl]methyl]purin-6-one]: the half-maximal inhibitory concentration (IC50) under setting [1] was found to be 20.4 nM.

With `Cn1cnc2ncn(Cc3nc([C@H]4[C@@H]5C=C(c6ccc7scnc7c6)C[C@@H]54)no3)c(=O)c21` [Example Compound 112, 1-((3-((1S,5S,6R)-3-(benzo[d]thiazol-5-yl)bicyclo[3.1.0]hex-2-en-6-yl)-1,2,4-oxadiazol-5-yl)methyl)-7-methyl-1,7-dihydro-6H-purin-6-one], the half-inhibitory concentration (IC50) turned out to be 36 nM under setting [1] and 24 nM under setting [2].

On to `Cn1cnc2ncn(Cc3nc([C@H]4[C@@H]5CN(c6cc(Cl)ccc6F)C[C@@H]54)no3)c(=O)c21`, for which the IC50 under setting [1] was 12.5 nM.
